Test results taken from patent US8729047B2, “Compositions for inhibiting redox-sensitive GTPases” (Board of Regents, The University of Texas System, priority 2010, dated 2014).
Like-named read-outs stand apart in the source and are kept apart here. Each block holds one molecule with its values, some of them ahead of it.

Tests used:
Rho proteins = experiment: Binding affinity of 6-TGDP compared with GDP (Example 3); conditions: all examined Rho proteins; FIG. 16A
Procedure: (a) A competitive binding assay was performed to determine the binding affinity of Rho GTPase and 6-TGDP. The radiolabeled [^3H]GDP-loaded Rho protein (1 μM) was titrated with various concentrations of 6-TGDP. The titrated Rho protein sample then was spotted onto a nitrocellulose membrane. Each membrane was washed three times with the assay buffer, and radioactivity was determined using a Beckman-Coulter scintillation counter. The radioactivity of the sample (Rho protein-bound [^3H]GDP) was converted into, and thus plotted, as the fraction of mol GDP per mol total Rho protein. The apparent dissociation constant (^appKD) of the Rho protein with [^3H]GDP in the presence of 6-TGDP was determined by using Prism software to fit the titration curve to a hyperbola.
The RhoC and mutant RhoC bound GDP also can be competitively displaced with 6-TGDP (FIG. 16A). The binding affinities that 6-TGDP has for all of these examined Rho proteins are ˜2-fold weaker than that of GDP for Rho proteins (FIG. 16A).

A7r5 cells = experiment: Viability / cytotoxicity of A7r5 cells; format: cell-based, rat; conditions: 5 days of treatment; FIG. 24
Source text: FIG. 24. Effects of 6- and 8-TG on A7r5 cells. Treatment of cells with 6- or 8-TG is described in FIGS. 19 and 21. The image associated with the effect of 6- or 8-TG was taken after 5 days of treatment.

Rac1 = Rac1 (Homo sapiens, UniProt P63000); parameters: made in house; host or cells: E. coli; conditions: known value (Morgan et al.); read-out: trueKD for GDP; cited from earlier work
Ras = Ras (Homo sapiens, UniProt P01112); experiment: [3H]GDP displacement of 6-TGDP from .NO2-treated 6-TGDP-loaded GTPase with/without DTT (FIG. 13B); format: binding
Chain of Ras (P01112 whole entry): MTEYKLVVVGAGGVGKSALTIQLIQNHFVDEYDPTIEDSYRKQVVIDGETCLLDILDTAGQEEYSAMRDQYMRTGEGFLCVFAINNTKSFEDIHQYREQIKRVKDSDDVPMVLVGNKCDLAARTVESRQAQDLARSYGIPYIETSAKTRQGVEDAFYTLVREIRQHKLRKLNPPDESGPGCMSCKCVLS
Procedure: FIG. 13. Guanine nucleotide exchange of small GTPases with 6-TGDP. (A) To monitor 6-TGDP-mediated GTPase GDP dissociation, [^3H]GDP-loaded GTPase (1 μM) was incubated with 6-TGDP (0-2000 μM) for 1 h. (B) To monitor GTPase 6-TGDP dissociation by GDP (0-2000 μM) in the presence and absence of dithiothreitol (DTT), 6-TGDP-loaded GTPase (˜1 μM) was treated with .NO2 (˜3 μM) under anaerobic conditions and was incubated with various concentrations of [^3H]GDP (0-2000 μM) in the presence and absence of DTT (10 mM) for 1 h. For all assays, aliquots were withdrawn and spotted onto nitrocellulose filters. The filters were then washed three times with an assay buffer, and radioactivity was determined using a Beckman-Coulter scintillation counter. The resultant radioactivity (dpm) values associated with GTPase-bound [^3H]GDP were converted into the fraction of mol nucleotide per mol total GTPase. The data presented represent mean and standard error values from triplicate measurements. The apparent dissociation constants (appKD values) of GTPase 6-TGDP association ([^3H]GDP dissociation, A); and 6-TGDP dissociation ([3H]GDP association, B) were obtained by fitting the data to a simple dissociation and association, respectively. (A) The ^appKD values of Ras, RhoC, RhoA and Rac1 for 6-TGDP, are, respectively, 2300, 230, 224, and 245 μM [6-TGDP]. (B) The appKD values of RhoC with and without DTT are, respectively, 560, and 1000 μM [[^3H]GDP], whereas the ^appKD values of Ras with and without DTT are 530, and 520 μM [[^3H]GDP], respectively. The standard errors of each ^appKD value are less than 10% of their given values, and regression values associated with the fit were r^2>0.9560.
The ^appKD [3H]GDP was converted into ^trueKD [3H]GDP by using a compensation equation, ^trueKD [3H]GDP=^appKD [3H]GDP/(1+[6-TGDP]/^trueKD GDP) (Segel, I. H. (1993) Enzyme kinetics, A Wiley-Interscience publication, New York) (see above)). The calculated ^trueKD [3H]GDP values of RhoC in the presence and absence of DTT were estimated to be 516 μM and 923 μM, respectively. […] Treatment with DTT, a reducing agent, disrupts the disulfide bond between RhoC and 6-TGDP, liberating 6-TGDP from RhoC, and thereby permitting [^3H]GDP to bind to RhoC.

binding affinity of 6-TGDP weaker than that of GDP (Rho proteins): ~2 fold
SMILES: Nc1nc2c(ncn2[C@@H]2O[C@H](COP(=O)(O)OP(=O)(O)O)[C@@H](O)[C@H]2O)c(=S)[nH]1 [6-TGDP, 6-thioguanosine diphosphate]

SMILES: Nc1nc2[nH]c(S)nc2c(=O)[nH]1 [8-TG, 2-amino-8-mercapto-1H-purin-6(9H)-one]
viability / cytotoxicity of A7r5 cells (A7r5 cells): did not alter the viability

SMILES: Nc1nc2c(ncn2[C@@H]2O[C@H](COP(=O)(O)OP(=O)(O)O)[C@@H](O)[C@H]2O)c(=O)[nH]1 [GDP]
Kd (Rac1): 1800 nM
Kd (Ras; absence of DTT, calculated by compensation equation, read-out: trueKD [3H]GDP): 4.8 nM
Kd (Ras; presence of DTT, calculated by compensation equation, read-out: trueKD [3H]GDP): 4.7 nM
Kd (Ras; with DTT 10 mM, 6-TGDP-loaded GTPase ~1 μM treated with .NO2 ~3 μM, anaerobic, 1 h, read-out: appKD for [3H]GDP (6-TGDP dissociation)): 530000 nM
Kd (Ras; without DTT, 6-TGDP-loaded GTPase ~1 μM treated with .NO2 ~3 μM, anaerobic, 1 h, read-out: appKD for [3H]GDP (6-TGDP dissociation)): 520000 nM
